Source: US20230285570A1, “THERAPEUTICALLY USEFUL CURE-PRO MOLECULES FOR E3 LIGASE MEDIATED DEGRADATION OF PROTEINS, AND METHODS OF MAKING AND USING THEM” (CORNELL UNIVERSITY, priority 2020, published 2023)
Entries after “also recorded” stand apart in the source; their conditions may differ.

Columns and labels:
Aiolos and Ikaros [1] = assay: Aiolos and Ikaros expression in Ramos cells, Western blot; type: cell-based; settings: monomer alone, 100 nM-10 μM, 24 h
Procedure: (§1) Namalwa, Ramosm HeLa, MCF7, or HT29 HCT116 cells (2.5-3×10^6) were treated for 24 hours with the indicated compounds solubilized in DMSO. The cells were washed in ice-cold PBS and were then lysed in RIPA lysis buffer (150 mM NaCl, 5 mM EDTA, 1% NP-40, 0.5% sodium deoxycholate, 0.1% SDS, 50 mM Tris, pH 8.0.) with Roche protease inhibitor complete cocktail and phosphatase inhibitors (10 mM sodium fluoride, 10 mM sodium pyrophosphate, 1 mM sodium orthovanadate and 20 mM β-glycerophosphate). The total protein concentrations were determined by Bradford Protein Assay (Pierce) and 10-20 μg of protein was loaded onto 4-15% Tris-Glycine gradient gels (Biorad). After standard gel electrophoresis, the separated proteins were transferred to PVDF membrane by wet transfer. The immunoblots were then blocked for 1 hour in 5% skim milk in TBST or 5% BSA in TBST, according to manufacturer's instructions, before an overnight incubation at 4° C. with indicated antibodies and membranes. Membranes were then incubated with the appropriate horseradish peroxidase-conjugated secondary antibodies (1:5,000 dilution) for 1 h at room temperature and the bands were visualized using the Clarity Max Western ECL Substrate (Biorad) and the ChemiDoc Imaging System (Biorad). Signal was detected with ECL Western Blotting Substrate (Pierce) and X-ray film processed with a Konica SRX-101 X-ray film processor or captured by Bio-Rad's Chemidoc Imaging system.
(§2) Namalwa (FIG. 78) or Ramos (FIG. 79) cells (5×10^6) were treated for 24 h with the compounds solubilized in DMSO. Compounds were added at 100 nM-10 μM each. Standardized protein samples were electrophoresed and imaged as described in the immunoblotting section above. FIGS. 78 and 79 depict the effects of the E3 ubiquitin ligase CURE-PRO monomer ligands (100 nM-10 μM, 24 h) targeting Cereblon on the expression of Aiolos and Ikaros, two downstream proteins that are known to be ubiquitinated and degraded after IMiDs bind to CRBN.

Aiolos and Ikaros [2] = assay: Aiolos and Ikaros expression in Namalwa cells, Western blot; type: cell-based; settings: monomer alone, 100 nM-10 μM, 24 h
Procedure: as §1, §2

SLC19A1 = assay: RT-PCR of c-MYC downstream target gene SLC19A1 in HeLa cells; type: cell-based, Human; settings: single compound, HeLa, 10 μM, 24 h
Procedure: The suppression of the expression of the downstream c-MYC target, SLC19A1, was measured by RT-PCR using Power SYBR® Green Cells-to-Ct™ Kit (Life Technologies). Adherent cells were plated on 96 well plates at 5,000 cells per well were treated for 24 h with monomer compounds and compounds capable of reversible interactions (1 nM-100 μM). Cells were subsequently washed in ice-cold PBS processed according to the manufacturer's instructions. Quantitative real-time PCR was performed using a ViiA™ 7 Real-time PCR System (Applied Biosystems, Foster City, Calif., USA). GAPDH and ACTB served as internal controls.
HeLa cells (1×10^4) were treated for 24 hours in 96 well plates with the compounds solubilized in DMSO. Compounds were added at 10 μM each and RNA expression measured by the Cells-to Ct method described above (Thermofisher).

c-MYC [3] = target: T1, c-MYC (Homo sapiens, UniProt P01106); assay: CURE-PRO-mediated c-MYC degradation in HCT1116 cells, Western blot or WES; type: cell-based; parameters: endogenous in cells; host or cells: HT29
T1 sequence (P01106 whole entry): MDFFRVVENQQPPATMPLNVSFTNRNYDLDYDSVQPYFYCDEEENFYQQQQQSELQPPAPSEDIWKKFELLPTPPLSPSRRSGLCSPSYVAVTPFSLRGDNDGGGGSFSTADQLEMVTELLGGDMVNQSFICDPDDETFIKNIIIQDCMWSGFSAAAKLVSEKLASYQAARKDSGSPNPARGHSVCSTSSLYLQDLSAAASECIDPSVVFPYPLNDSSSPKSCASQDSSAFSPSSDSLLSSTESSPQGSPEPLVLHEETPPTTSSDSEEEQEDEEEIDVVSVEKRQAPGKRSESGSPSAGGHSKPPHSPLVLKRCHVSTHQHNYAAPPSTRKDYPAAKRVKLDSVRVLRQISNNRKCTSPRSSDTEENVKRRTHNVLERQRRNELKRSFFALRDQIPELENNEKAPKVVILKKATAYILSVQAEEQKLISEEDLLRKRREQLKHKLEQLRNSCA
Procedure: as §1
WES Simple analysis was performed on WES system (ProteinSimple-Biotechne) according to the manufacturer's instructions. Total protein concentrations of cell lysates were determined by the Pierce BCA kit (Thermo Fisher). 3 μL of 0.3 μg/μL of the protein lysate was loaded onto a 12- to 230-kDa WES assay plate (ProteinSimple) where 300 nL sample was withdrawn through a capillary, subjected to electrophoretic separation of proteins by size, and followed by the simultaneous, HRP-based detection of proteins using the Anti-Rabbit Detection Module (Proteinsimple: #DM-001). The electropherograms were checked then the automatic peak detection was manually corrected if it was required.
HCT1116 cells (2.5×10^6) were treated for 24 h with the compounds solubilized in DMSO. Compounds were added at 10 nM-10 μM each. Standardized protein samples were electrophoresed and imaged as described in the immunoblotting or WES (Proteinsimple) sections above. c-MYC monomers, MYC-N20 (FIG. 100, a 10074-G5 derivative comprising diol linkers), and MYC-N10 (FIG. 101), MYC-N6 (FIG. 102), and MYC-N9 (FIG. 103) (10058-F4 derivatives comprising diol linkers), and MDM2 ligands, 8310 and 8312 (Nutlin 3a derivatives comprising boronic acid linkers) were combined in a 1:1 ratio.
HCT1116 cells (2.5×10^6) were treated for 24 h with the compounds solubilized in DMSO. Compounds were added at 1 μM-10 μM each.

c-MYC [4] = target: T1, c-MYC; assay: Summary of C-MYC degradation by CURE-PRO pairs, estimated from Western Blot or WES; type: cell-based; parameters: endogenous in cells; host or cells: HT29
Procedure, shortened: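 Namalwa, Ramos, HeLa, MCF7, HT29 or HCT116 cells treated 24 h with compounds in DMSO; RIPA lysates analysed by Western blot (ECL) or capillary WES immunodetection. Check mark denotes 30% to 70% or higher protein degradation.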

MV-4-11 cells = assay: CellTiter-Glo cell viability, MV-4-11 cells; type: cell-based; settings: monomer alone, MV-4-11, 24 h, 1 nM-100 μM
Procedure: CellTiter-Glo® 2.0 Cell Viability Assay (Promega) was carried out following the manufacturer's recommendations. Cells were seeded at a density of 1000 cells/well in a white 96 well plates (Corning, #3917) in a total volume of 100 μl with respective monomers, combinations of BRD ligands together with E3 ligase ligands or vehicle control treatment. After a 72 h incubation, 100 ul of the CellTiter-Glo® substrate was added per well and luminescence was read on a Spectramax M5 (Molecular Devices). Dose-response curves were generated using Graphpad Prism software.
MV-4-11 cells (5×10^4) were treated for 24 hours with the sample compounds solubilized in DMSO. The compounds were added at 1 nM-100 μM each. Cellular viability was determined using the CellTiter-Glo® Luminescent Cell Viability Assay (Promega) described above. FIGS. 19-22 depict the CURE-PRO-mediated loss of cellular viability for BRD monomers (JQ1 derivatives comprising of catechol linkers), and CRBN ligand, 8049 (pomalidomide derivatives comprising boronic acid linkers) combined in a 1:1 ratio.
MV-4-11 cells (1×10^4) were treated for 72 hours with the compounds solubilized in DMSO. Compounds were added at 10 nM-100 μM each. Cellular viability was determined using the CellTiter-Glo® Luminescent Cell Viability Assay (Promega) described above. FIGS. 47-54 depict the CURE-PRO-mediated loss of cellular viability for BRD monomers (JQ1 derivatives comprising of boronic acid linkers), and CRBN ligands, 8046, 8047 and 8066 (pomalidomide derivatives comprising diol linkers) combined in a 1:1 ratio.

SMILES	expression of Aiolos and Ikaros (Aiolos and Ikaros [1])	expression of Aiolos and Ikaros (Aiolos and Ikaros [2])	further results
O=C1CCC(N2C(=O)c3cccc(CNC(=O)C4C[C@H]5C[C@@H]4[C@H](O)[C@@H]5O)c3C2=O)C(=O)N1 (stereo in doubt) [compound 8066, (1S,4R,5R,6S)—N-((2-(2,6-dioxopiperidin-3-yl)-1,3-dioxoisoindolin-4-yl)methyl)-5,6-dihydroxybicyclo[2.2.1]heptane-2-carboxamide]	largely maintain Aiolos and Ikaros expression levels	largely maintain Aiolos and Ikaros expression levels	
Cc1sc2c(c1C)C(c1ccc(Cl)cc1)=N[C@@H](CC(=O)Nc1ccc(OCCOCCOCCOCCNc3cccc4c3C(=O)N(C3CCC(=O)NC3=O)C4=O)cc1)c1nnc(C)n1-2 (some centres unmarked) [ARV-825, reference compound]			suppression of SLC19A1 expression (SLC19A1): Complete suppression; also recorded: completely suppressed
CCc1ccc(/C=C2\SC(=O)N(CCOCCNC(=O)c3cccc(B(O)O)c3)C2=O)cc1 [MYC-E4]			c-MYC degradation (c-MYC [3]; 1:1 with MDM2 ligand 8313, HCT1116, 24 h, 1 μM-10 μM each): had no effect; c-MYC degradation (c-MYC [3]; 1:1 with MDM2 ligand 8314, HCT1116, 24 h, 1 μM-10 μM each): caused degradation of c-MYC protein at 10 μM; also recorded: Degradation was noted; c-MYC degradation (c-MYC [3]; monomer dosed alone, HCT1116, 24 h): No loss of c-MYC protein was noted; Degradation of C-MYC, combination with CRBN ligand 8047 (c-MYC [4]; Table 7, aryl-boronic acid MYC ligand + 8047): √ (A black check mark indicates efficacy of 30% to 70% or higher protein degradation); Degradation of C-MYC, combination with MDM2 ligand 8314 (c-MYC [4]; Table 8, aryl-boronic acid MYC ligand + 8314): √ (A black check mark indicates efficacy of 30% to 70% or higher protein degradation)
Nc1cccc2c1C(=O)N(C1CCC(=O)NC1=O)C2=O (centres unmarked) [Pomalidomide, pomalidomide, reference compound]	caused greater loss of Aiolos and Ikaros protein than the CURE-PRO derivatives at equimolar concentrations	caused greater loss of Aiolos and Ikaros protein than the CURE-PRO derivatives at equimolar concentrations	suppression of SLC19A1 expression (SLC19A1): no suppression
O=C1CCC(N2C(=O)c3cccc(CNC(=O)c4ccc(O)c(O)c4)c3C2=O)C(=O)N1 (centres unmarked) [compound 8046, N-((2-(2,6-dioxopiperidin-3-yl)-1,3-dioxoisoindolin-4-yl)methyl)-3,4-dihydroxybenzamide]	largely maintain Aiolos and Ikaros expression levels	largely maintain Aiolos and Ikaros expression levels	
O=C1CCC(N2C(=O)c3cccc(CNC(=O)c4cccc(O)c4O)c3C2=O)C(=O)N1 (centres unmarked) [compound 8047, N-((2-(2,6-dioxopiperidin-3-yl)-1,3-dioxoisoindolin-4-yl)methyl)-2,3-dihydroxybenzamide]	largely maintain Aiolos and Ikaros expression levels	largely maintain Aiolos and Ikaros expression levels	
O=C1CCC(N2C(=O)c3cccc(CNC(=O)c4ccc(B(O)O)cc4)c3C2=O)C(=O)N1 (centres unmarked) [compound 8048]	largely maintain Aiolos and Ikaros expression levels	largely maintain Aiolos and Ikaros expression levels	
O=C1CCC(N2C(=O)c3cccc(CNC(=O)c4cccc(B(O)O)c4)c3C2=O)C(=O)N1 (centres unmarked) [compound 8049]	largely maintain Aiolos and Ikaros expression levels	largely maintain Aiolos and Ikaros expression levels	loss of cellular viability (MV-4-11 cells): little loss of viability was observed
